Laboratory results: publication PMC9919490, “Synthesis and Biological Evaluation of Novel Dispiro-Indolinones with Anticancer Activity” (Molecules, 2023)

Tests used:
[1] = tested on: HCT116 tumor xenografts; experiment: HCT116 xenograft model
Procedure: Twenty-three conventional, immunodeficient female mice (BALB/c nude, 20–23 g) were housed in RAMS and used as donors and recipients for HCT116 cells.
The first implantation of HCT116 tumor cells (1 × 10^6 in a volume of 0.5 mL) was performed subcutaneously into two BALB/c nude mice. The first transplantation of the xenograft (50 mg) was performed after 30 days into 2 mice (the 3rd passage was used in vivo). […] Then, in a laminar flow hood, the tumor suspension (0.5 mL, the first passage) was implanted subcutaneously into the flank area of two BALB/c nude mice (males). After a volume of 0.8–1.0 cm^3 was achieved, the nudes were passaged using 4 donor mice to obtain the desired grade and mass of the transplants. […] The tumor nests were mechanistically disintegrated to obtain 10% of the tumor samples, and then the nutrient medium was added. The inoculation was performed using individual sterile plastic syringes (1 mL) equipped with 18G suture needles. The transplantation was carried out bilaterally in the flank areas. Each mouse was inoculated with 0.5 mL (10%) of the tumor suspension (40 mg of the tumor mass for each animal). Prior to inoculation, the animals’ skin was treated with 70% alcohol. Between injections, the Petri dish containing the tumor suspension was tightly covered to avoid any contamination. Before injection, the suspension was vigorously stirred in a syringe. […]

[2] = tested on: HCT^wt cells; experiment: MTT cytotoxicity assay, HCT^wt (p53 pos); assay type: cell-based; conditions: 48 h

Q: `CCOc1ccc(N2C(=O)C3(NC2=S)C(c2ccc(Cl)cc2)CN(C)C32C(=O)Nc3ccc(Br)cc32)cc1` (stereo not drawn) [Compound 29] was tested. Which T/C ([1]; 1000 mg/kg i.p. o.d. 10 days, after 4 days, p = 0.0007) did it give?
A: 44%

Q: And the “T/C (treatment/control)” value ([1]; sample 1000 mg/kg i.p. o.d. 10 days, after 24 h, p = 0.00005)?
A: 25%

Q: And the IC50 [2]?
A: 14.1 ± 4.2 µM
